Test results taken from patent US7612200B2, “Inhibitors of protein kinases” (Locus Pharmaceuticals, Inc., priority 2004, dated 2009).

Experiments:
Type in all cases: biochemical
[1] = biological target: IGF1R (Homo sapiens, UniProt P08069); assay: Kinase activity at ATP Km,app, IGF1R; settings: 40 min, compound 2 μM
Method: (§1) IGF-1R Kinase Activity In a final reaction volume of 25 μl, IGF-1R (h) (5-10 mU) is incubated with 50 mM Tris pH 7.5, 0.1 mM EGTA, 0.1 mM Na3VO4, 0.1% β-mercaptoethanol, 250 μM KKKSPEGYVNIEFG, 10 mM MnCl2, 10 mM MgAcetate and [γ-^33P-ATP] (specific activity approx. 500 cpm/pmol, concentration as required). The reaction is initiated by the addition of the MgATP mix. After incubation for 40 minutes at room temperature, the reaction is stopped by the addition of 5 μl of a 3% phosphoric acid solution. 10 μl of the reaction is then spotted onto a P30 filtermat and washed three times for 5 minutes in 75 mM phosphoric acid and once in methanol prior to drying and scintillation counting.

[2] = biological target: T1, IRAK4 (Homo sapiens, UniProt Q9NWZ3); assay: Kinase activity at ATP Km,app, IRAK4; settings: compound 2 μM
T1 sequence (Q9NWZ3 1-460): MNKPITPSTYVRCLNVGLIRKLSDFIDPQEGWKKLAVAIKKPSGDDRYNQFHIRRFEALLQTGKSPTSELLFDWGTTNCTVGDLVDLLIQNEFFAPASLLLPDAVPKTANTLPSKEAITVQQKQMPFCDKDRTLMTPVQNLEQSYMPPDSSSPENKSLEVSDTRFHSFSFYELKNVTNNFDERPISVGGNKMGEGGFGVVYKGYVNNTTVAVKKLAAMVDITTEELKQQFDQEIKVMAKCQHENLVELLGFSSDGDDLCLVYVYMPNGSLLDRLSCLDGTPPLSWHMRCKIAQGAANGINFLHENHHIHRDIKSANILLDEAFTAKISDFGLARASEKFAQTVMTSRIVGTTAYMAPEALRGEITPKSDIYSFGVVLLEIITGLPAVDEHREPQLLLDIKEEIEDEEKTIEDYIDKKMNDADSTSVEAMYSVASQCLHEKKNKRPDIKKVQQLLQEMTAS

[3] = biological target: Lck (Homo sapiens, UniProt P06239); assay: Kinase activity at ATP Km,app, Lck; settings: 40 min, compound 2 μM
Method: as §1, with “Lck” for “IGF-1R”, “Activity:” for “Activity”, “[…], Lck” for “μl, IGF-1R”, “Na3VO4,” for “Na3VO4, 0.1% β-mercaptoethanol,”, “KVEKIGEGTYGVVYK (Cdc2 peptide),” for “KKKSPEGYVNIEFG, 10 mM MnCl2,”

[4] = biological target: MAPKAP-K2 (Homo sapiens, UniProt P49137); assay: Kinase activity at ATP Km,app, MAPKAP-K2; settings: 40 min, compound 2 μM
Method: (§2) MAPKAP-K2 Kinase Activity: In a final reaction volume of 25 μl, MAPKAP-K2 (h) (5-10 mU) is incubated with 50 mM Na-β-glycerophosphate pH 7.5, 0.1 mM EGTA, 30 mM KKLNRTLSVA, 10 mM MgAcetate and [γ-^33P-ATP] (specific activity approx. 500 cpm/pmol, concentration as required). The reaction is initiated by the addition of the MgATP mix. After incubation for 40 minutes at room temperature, the reaction is stopped by the addition of 5 μl of a 3% phosphoric acid solution. 10 μl of the reaction is then spotted onto a P30 filtermat and washed three times for 5 minutes in 75 mM phosphoric acid and once in methanol prior to drying and scintillation counting.

[5] = biological target: Akt1 (Homo sapiens, UniProt P31749); assay: Kinase activity at ATP Km,app, Akt1; settings: compound 2 μM
[6] = biological target: c-MET (Homo sapiens, UniProt P08581); assay: Kinase activity at ATP Km,app, c-MET; settings: compound 2 μM
Method: as §2, with “Met Kinase” for “MAPKAP-K2 Kinase”, “μl, Met” for “μl, MAPKAP-K2”, “with 8” for “with 50”, “mM MOPS” for “mM Na-β-glycerophosphate”, “pH 7.0, 0.2” for “pH 7.5, 0.1”, “mM EDTA, 250 μM KKKSPEGYVNIEFG,” for “mM EGTA, 30 mM KKLNRTLSVA,”

[7] = biological target: PKC-alpha (Homo sapiens, UniProt P17252); assay: Kinase activity at ATP Km,app, PKC-alpha; settings: 40 min, compound 2 μM
Method: as §2, with “PKCα Kinase” for “MAPKAP-K2 Kinase”, “μl, PKCα” for “μl, MAPKAP-K2”, “with 20” for “with 50”, “mM HEPES” for “mM Na-β-glycerophosphate”, “pH 7.4, 0.03% Triton X-100,” for “pH 7.5,”, “mM CaCl2, 0.1 mg/ml phosphatidylserine, 10 μg/ml diacylglycerol, 0.1 mg/ml histone Hi,” for “mM EGTA, 30 mM KKLNRTLSVA,”

[8] = biological target: LynA (Homo sapiens, UniProt P07948); assay: Kinase activity at ATP Km,app, LynA; settings: 40 min, compound 2 μM
Method: as §1, with “Lyn” for “IGF-1R”, “Activity:” for “Activity”, “0.1 mg/ml poly(Glue, Tyr) 4:1,” for “250 μM KKKSPEGYVNIEFG, 10 mM MnCl2,”, “Filtermat A” for “P30 filtermat”

Chain of c-MET (P08581 25-1390): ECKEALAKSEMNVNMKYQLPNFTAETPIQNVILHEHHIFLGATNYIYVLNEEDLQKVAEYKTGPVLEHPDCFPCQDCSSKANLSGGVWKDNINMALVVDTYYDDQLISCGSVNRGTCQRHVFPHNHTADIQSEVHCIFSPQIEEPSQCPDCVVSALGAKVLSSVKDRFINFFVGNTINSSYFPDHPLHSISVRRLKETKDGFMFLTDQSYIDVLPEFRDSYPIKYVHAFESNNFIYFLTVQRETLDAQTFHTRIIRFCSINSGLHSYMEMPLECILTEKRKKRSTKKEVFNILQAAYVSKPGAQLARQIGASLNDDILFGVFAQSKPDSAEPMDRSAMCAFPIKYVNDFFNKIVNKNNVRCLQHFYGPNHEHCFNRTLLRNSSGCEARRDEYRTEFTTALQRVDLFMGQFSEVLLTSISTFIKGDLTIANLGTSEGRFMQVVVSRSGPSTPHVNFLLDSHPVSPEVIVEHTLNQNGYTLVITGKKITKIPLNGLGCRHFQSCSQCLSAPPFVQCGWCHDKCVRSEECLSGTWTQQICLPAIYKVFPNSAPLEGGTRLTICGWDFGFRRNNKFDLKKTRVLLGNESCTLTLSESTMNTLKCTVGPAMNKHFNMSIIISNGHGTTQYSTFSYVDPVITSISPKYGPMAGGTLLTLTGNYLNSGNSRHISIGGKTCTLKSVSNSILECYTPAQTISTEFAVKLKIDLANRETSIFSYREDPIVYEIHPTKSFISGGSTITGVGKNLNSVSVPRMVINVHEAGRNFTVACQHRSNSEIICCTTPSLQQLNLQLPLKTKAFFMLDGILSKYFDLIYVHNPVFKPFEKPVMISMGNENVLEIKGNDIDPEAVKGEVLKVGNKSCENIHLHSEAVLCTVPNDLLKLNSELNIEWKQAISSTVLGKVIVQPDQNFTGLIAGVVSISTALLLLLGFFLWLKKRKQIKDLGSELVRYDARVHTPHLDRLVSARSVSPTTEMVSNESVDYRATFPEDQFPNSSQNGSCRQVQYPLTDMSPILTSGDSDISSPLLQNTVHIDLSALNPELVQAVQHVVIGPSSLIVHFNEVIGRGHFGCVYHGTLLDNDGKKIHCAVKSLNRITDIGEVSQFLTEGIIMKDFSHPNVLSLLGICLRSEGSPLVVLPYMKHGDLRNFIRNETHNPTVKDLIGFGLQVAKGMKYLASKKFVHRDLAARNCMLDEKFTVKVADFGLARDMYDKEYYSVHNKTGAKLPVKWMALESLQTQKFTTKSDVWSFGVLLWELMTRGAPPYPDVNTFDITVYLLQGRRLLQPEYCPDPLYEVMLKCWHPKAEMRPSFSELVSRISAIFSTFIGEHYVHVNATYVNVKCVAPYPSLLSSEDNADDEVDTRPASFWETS
Chain of Lck (P06239 whole entry): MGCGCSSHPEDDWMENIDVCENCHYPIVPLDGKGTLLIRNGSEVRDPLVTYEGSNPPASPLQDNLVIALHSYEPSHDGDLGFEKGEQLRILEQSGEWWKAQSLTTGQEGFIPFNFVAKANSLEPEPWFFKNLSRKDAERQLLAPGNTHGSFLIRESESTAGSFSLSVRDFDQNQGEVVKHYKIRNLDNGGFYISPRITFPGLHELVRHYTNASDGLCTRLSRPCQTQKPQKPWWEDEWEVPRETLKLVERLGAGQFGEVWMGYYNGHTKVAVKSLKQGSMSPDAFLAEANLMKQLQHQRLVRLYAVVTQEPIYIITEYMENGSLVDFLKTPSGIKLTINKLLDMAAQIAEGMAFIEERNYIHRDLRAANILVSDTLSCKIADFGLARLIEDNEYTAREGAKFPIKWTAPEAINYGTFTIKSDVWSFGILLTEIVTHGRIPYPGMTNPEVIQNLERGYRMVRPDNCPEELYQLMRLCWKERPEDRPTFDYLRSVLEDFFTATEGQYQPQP
Chain of IGF1R (P08069 31-1367): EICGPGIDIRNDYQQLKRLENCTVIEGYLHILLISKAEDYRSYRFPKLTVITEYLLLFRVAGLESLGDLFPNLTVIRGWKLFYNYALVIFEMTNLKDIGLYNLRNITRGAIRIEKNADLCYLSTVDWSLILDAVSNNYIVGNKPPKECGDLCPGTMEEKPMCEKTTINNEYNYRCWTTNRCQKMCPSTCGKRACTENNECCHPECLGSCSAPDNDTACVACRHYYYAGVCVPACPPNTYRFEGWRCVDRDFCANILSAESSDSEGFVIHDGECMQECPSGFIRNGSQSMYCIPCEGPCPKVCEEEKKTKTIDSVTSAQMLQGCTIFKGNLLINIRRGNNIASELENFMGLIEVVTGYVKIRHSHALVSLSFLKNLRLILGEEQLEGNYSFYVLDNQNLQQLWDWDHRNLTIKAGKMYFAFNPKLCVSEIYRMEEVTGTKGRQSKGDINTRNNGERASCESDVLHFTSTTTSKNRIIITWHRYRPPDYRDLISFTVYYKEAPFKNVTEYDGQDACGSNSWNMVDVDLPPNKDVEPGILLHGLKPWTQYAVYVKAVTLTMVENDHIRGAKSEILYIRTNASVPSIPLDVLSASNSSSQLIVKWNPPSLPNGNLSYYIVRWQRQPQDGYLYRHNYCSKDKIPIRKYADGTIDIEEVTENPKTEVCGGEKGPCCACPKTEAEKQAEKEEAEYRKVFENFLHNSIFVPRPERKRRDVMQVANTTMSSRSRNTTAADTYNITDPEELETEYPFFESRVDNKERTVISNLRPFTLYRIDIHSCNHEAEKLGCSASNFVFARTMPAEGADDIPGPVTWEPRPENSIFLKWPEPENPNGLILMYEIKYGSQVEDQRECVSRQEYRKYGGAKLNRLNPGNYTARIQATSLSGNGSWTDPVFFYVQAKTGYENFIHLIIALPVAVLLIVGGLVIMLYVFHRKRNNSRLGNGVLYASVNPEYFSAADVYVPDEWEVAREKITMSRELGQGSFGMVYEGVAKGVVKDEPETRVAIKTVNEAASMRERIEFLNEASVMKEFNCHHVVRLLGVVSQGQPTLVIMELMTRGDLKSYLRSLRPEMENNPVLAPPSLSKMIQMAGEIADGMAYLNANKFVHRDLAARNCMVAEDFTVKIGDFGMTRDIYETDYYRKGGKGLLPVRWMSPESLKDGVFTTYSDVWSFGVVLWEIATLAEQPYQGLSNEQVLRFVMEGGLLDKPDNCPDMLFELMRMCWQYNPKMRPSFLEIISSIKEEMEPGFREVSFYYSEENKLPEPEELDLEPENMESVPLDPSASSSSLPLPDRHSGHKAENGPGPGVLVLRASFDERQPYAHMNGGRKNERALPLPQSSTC
Chain of LynA (P07948 whole entry): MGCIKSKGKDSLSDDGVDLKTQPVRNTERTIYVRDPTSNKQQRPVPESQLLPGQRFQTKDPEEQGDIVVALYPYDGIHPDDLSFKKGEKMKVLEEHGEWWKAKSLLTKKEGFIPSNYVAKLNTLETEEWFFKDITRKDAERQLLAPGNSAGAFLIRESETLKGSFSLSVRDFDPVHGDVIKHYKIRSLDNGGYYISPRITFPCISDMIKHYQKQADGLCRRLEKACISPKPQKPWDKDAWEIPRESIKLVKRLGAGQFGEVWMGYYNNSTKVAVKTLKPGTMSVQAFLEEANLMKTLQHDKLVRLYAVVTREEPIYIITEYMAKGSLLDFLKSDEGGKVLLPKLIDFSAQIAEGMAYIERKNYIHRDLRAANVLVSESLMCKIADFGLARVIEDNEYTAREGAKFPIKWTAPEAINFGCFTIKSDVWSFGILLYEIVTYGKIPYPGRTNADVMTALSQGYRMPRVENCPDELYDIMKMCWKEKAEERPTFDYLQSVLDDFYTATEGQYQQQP
Chain of Akt1 (P31749 whole entry, species assumed): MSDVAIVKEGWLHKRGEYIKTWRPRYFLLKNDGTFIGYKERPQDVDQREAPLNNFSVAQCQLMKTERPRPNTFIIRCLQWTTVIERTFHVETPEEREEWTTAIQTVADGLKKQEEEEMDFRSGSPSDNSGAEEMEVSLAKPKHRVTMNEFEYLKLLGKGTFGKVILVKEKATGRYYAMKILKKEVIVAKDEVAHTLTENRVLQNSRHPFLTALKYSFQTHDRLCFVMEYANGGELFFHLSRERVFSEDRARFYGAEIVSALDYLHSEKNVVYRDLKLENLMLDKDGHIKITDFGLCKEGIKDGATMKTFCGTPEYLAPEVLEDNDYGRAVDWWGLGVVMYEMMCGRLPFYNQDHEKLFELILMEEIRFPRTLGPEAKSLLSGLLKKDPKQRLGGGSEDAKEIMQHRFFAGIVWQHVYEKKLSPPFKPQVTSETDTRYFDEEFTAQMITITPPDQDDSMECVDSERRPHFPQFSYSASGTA
Chain of MAPKAP-K2 (P49137 whole entry): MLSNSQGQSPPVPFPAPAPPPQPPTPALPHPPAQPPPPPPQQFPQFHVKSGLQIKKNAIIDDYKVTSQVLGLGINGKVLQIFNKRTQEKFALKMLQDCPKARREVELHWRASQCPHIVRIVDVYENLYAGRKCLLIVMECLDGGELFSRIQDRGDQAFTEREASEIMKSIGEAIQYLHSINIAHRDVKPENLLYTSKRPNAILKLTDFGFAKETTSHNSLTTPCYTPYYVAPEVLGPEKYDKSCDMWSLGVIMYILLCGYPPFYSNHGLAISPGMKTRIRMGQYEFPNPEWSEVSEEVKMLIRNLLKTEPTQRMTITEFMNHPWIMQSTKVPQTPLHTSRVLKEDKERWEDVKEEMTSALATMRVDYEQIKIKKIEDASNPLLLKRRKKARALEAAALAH

inhibition at 2 µM [1] | % Inhibition at ATP Km,app [2] | inhibition at 2 µM [3] | inhibition at 2 µM [4] | inhibition at 2 µM [5] | % Inhibition at ATP Km,app [6] | inhibition at 2 µM [7] | inhibition at 2 µM [8] | Compound
0 to 25% | 0-25% | 0 to 25% | 0 to 25% | 0 to 25% | 0-25% | 0 to 25% | 51 to 76% | CC(C)(C)c1cc(C(=O)N2CCNC(=O)CC2)c(NC(=O)Nc2ccc(Oc3ccncc3)cc2)s1 [Example 4, 1-(5-tert-Butyl-3-(5-oxo-[1,4]diazepane-1-carbonyl)thiophen-2-yl)-3-(4-(pyridin-4-yloxy)phenyl)urea]
0 to 25% | 0-25% | 0 to 25% | 0 to 25% | 0 to 25% | 26-50% | 0 to 25% | 26 to 50% | CC(C)(C)c1cc(C(=O)N2CCNC(=O)C2)c(NC(=O)Nc2ccc(Oc3ccncc3)cc2)s1 [Example 2, 1-(5-tert-Butyl-3-(3-oxo-piperazine-1-carbonyl)thiophen-2-yl)-3-(4-(pyridin-4-yloxy)phenyl)urea]
0 to 25% | 0-25% | 0 to 25% | 0 to 25% | 0 to 25% | 0-25% | 0 to 25% | 26 to 50% | CC(C)(C)c1cc(C(=O)N2CCNS(=O)(=O)CC2)c(NC(=O)Nc2ccc(Oc3ccncc3)cc2)s1 [Example 1, 1-(5-tert-Butyl-3-(1,1-dioxo-1λ^6-[1,2,5]thiadiazepane-5-carbonyl)thiophen-2-yl)-3-(4-(pyridin-4-yloxy)phenyl)urea]
